Reference: patent publication US20120270237A9, “METHODS FOR THE IDENTIFICATION OF KINASE INTERACTING MOLECULES AND FOR THE PURIFICATION OF KINASE PROTEINS” (Cellzone AG, priority 2009, published 2012)

Columns and labels:
[1] = biological target: MARK2 (Homo sapiens, UniProt Q7KZI7); assay: Kinobeads competition binding, HL60 cell lysate; set-up: endogenous in cells; host or cells: HL60 cell lysate; details: 10 μM free compound
Procedure: To one aliquot of cell lysate 10 μM of the free compound (FIG. 3, CZC31326) was added and allowed to bind to proteins in the lysate. Then the affinity matrix with the immobilized compound (Example 1) was added to capture proteins that were not interacting with the previously added free compound. Beads were separated from the lysate and bead bound proteins were eluted in SDS sample buffer and subsequently separated by SDS-Polyacrylamide gel electrophoresis (FIG. 4). Suitable gel bands were cut out and subjected to in-gel proteolytic digestion with trypsin. The second lysate aliquot was processed identically, however no free compound was added (DMSO solvent control). Peptides originating from samples 1 and 2 were labeled with iTRAQ reagents (iTRAQ 114 and iTRAQ 117) and the combined samples were analyzed with a nano-flow liquid chromatography system coupled online to a tandem mass spectrometer (LC-MS/MS) experiment followed by iTRAQ reporter ion quantification in the MS/MS spectra (Ross et al., 2004. Mol. Cell. Proteomics 3(12):1154-1169). Further experimental protocols can be found in WO2006/134056 and a previous publication (Bantscheff et al., 2007. Nature Biotechnology 25, 1035-1044). Sepharose-beads with the immobilized compound (100 μl beads per pull-down experiment) were equilibrated in lysis buffer and incubated with a cell lysate sample containing 50 mg of protein on an end-over-end shaker (Roto Shake Genie, Scientific Industries Inc.) for 2 hours at 4° C. […] The iTRAQ reagents are a set of multiplexed, amine-specific, stable isotope reagents that can label peptides on amino groups in up to four different biological samples enabling simultaneous identification and quantitation of peptides. […] Relative protein quantitation was performed using peak areas of iTRAQ reporter ion signals essentially as described in an earlier publication (Bantscheff et al., 2007. Nature Biotechnology 25, 1035-1044).

[2] = biological target: MAP3K4 (Homo sapiens, UniProt Q9Y6R4); assay: Kinobeads competition binding, L-363 cell lysate; set-up: endogenous in cells; host or cells: L-363 cells (DSMZ ACC49), treated with MG132 before harvest; details: 10 μM free compound, L-363 lysate
Procedure: (§1) To one aliquot of cell lysate 10 μM of the free compound (FIG. 3, CZC31326) was added and allowed to bind to proteins in the lysate. Then the affinity matrix with the immobilized compound was added to capture proteins that were not interacting with the previously added free compound. Beads were separated from the lysate and bead bound proteins were eluted in SDS sample buffer and subsequently separated by SDS-Polyacrylamide gel electrophoresis (FIG. 8). Suitable gel bands were cut out and subjected to in-gel proteolytic digestion with trypsin. The second lysate aliquot was processed identically, however no free compound was added (DMSO solvent control). Peptides originating from samples 1 and 2 were labeled with iTRAQ reagents (iTRAQ 114 and iTRAQ 117) and the combined samples were analyzed with a nano-flow liquid chromatography system coupled online to a tandem mass spectrometer (LC-MS/MS) experiment followed by iTRAQ reporter ion quantification in the MS/MS spectra as described in Example 2.
(§2) For this experiment the human plasma cell leukaemia line L-363 was used (German Collection of Microorganisms and Cell Cultures, DSMZ number ACC49, Braunschweig, Germany). Cells were treated for three hours with 20 μM of the proteasome inhibitor MG132 (Z-Leu-Leu-Leu-al, Sigma C2211) prior to cell harvesting.

[3] = biological target: MAP3K3 (Homo sapiens, UniProt Q99759); assay: Kinobeads competition binding, L-363 cell lysate; set-up: endogenous in cells; host or cells: L-363 cells (DSMZ ACC49), treated with MG132 before harvest; details: 10 μM free compound, L-363 lysate
Procedure: as §1, §2

[4] = biological target: MAP3K1 (Homo sapiens, UniProt Q13233); assay: Kinobeads competition binding, L-363 cell lysate; set-up: endogenous in cells; host or cells: L-363 cells (DSMZ ACC49), treated with MG132 before harvest; details: 10 μM free compound, L-363 lysate
Procedure: as §1, §2

MAP3K1, sequence (Q13233 whole entry): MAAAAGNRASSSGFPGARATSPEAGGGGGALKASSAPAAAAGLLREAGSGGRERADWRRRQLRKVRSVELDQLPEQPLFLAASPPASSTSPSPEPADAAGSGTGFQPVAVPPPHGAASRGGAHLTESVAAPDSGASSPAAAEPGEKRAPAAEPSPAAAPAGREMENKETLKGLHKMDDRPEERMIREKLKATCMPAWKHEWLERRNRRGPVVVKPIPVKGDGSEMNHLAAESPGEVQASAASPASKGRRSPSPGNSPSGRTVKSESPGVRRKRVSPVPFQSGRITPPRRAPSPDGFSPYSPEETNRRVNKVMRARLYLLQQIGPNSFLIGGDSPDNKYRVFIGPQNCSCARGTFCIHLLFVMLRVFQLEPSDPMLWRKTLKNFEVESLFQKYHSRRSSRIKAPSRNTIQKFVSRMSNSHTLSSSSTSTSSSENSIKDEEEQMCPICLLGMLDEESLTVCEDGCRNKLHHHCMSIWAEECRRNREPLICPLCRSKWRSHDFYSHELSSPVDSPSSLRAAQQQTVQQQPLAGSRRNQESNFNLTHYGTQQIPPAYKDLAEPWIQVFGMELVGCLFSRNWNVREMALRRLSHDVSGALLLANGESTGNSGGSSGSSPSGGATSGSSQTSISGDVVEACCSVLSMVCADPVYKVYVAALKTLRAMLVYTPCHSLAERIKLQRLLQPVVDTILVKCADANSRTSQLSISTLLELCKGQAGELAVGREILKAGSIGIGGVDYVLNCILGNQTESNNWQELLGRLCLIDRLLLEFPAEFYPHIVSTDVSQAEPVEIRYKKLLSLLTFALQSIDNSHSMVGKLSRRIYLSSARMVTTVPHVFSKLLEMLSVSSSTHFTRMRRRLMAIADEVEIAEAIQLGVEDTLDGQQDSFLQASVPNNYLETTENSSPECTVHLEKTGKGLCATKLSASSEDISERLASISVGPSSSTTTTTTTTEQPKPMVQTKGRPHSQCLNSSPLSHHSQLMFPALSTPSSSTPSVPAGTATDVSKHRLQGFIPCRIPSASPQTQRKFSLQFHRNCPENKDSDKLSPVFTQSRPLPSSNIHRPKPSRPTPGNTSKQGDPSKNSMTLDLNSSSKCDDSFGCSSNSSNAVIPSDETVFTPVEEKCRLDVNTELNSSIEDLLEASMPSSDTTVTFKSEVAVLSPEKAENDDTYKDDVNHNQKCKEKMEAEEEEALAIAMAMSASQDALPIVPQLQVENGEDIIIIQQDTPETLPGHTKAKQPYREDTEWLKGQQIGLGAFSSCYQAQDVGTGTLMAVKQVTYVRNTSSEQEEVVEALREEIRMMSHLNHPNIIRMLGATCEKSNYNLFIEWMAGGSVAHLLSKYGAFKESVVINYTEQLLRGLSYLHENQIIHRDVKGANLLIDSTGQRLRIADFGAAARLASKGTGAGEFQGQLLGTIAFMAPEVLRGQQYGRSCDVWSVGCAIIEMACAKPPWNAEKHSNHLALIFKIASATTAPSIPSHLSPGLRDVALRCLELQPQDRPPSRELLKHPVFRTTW
MAP3K4, sequence (Q9Y6R4 whole entry): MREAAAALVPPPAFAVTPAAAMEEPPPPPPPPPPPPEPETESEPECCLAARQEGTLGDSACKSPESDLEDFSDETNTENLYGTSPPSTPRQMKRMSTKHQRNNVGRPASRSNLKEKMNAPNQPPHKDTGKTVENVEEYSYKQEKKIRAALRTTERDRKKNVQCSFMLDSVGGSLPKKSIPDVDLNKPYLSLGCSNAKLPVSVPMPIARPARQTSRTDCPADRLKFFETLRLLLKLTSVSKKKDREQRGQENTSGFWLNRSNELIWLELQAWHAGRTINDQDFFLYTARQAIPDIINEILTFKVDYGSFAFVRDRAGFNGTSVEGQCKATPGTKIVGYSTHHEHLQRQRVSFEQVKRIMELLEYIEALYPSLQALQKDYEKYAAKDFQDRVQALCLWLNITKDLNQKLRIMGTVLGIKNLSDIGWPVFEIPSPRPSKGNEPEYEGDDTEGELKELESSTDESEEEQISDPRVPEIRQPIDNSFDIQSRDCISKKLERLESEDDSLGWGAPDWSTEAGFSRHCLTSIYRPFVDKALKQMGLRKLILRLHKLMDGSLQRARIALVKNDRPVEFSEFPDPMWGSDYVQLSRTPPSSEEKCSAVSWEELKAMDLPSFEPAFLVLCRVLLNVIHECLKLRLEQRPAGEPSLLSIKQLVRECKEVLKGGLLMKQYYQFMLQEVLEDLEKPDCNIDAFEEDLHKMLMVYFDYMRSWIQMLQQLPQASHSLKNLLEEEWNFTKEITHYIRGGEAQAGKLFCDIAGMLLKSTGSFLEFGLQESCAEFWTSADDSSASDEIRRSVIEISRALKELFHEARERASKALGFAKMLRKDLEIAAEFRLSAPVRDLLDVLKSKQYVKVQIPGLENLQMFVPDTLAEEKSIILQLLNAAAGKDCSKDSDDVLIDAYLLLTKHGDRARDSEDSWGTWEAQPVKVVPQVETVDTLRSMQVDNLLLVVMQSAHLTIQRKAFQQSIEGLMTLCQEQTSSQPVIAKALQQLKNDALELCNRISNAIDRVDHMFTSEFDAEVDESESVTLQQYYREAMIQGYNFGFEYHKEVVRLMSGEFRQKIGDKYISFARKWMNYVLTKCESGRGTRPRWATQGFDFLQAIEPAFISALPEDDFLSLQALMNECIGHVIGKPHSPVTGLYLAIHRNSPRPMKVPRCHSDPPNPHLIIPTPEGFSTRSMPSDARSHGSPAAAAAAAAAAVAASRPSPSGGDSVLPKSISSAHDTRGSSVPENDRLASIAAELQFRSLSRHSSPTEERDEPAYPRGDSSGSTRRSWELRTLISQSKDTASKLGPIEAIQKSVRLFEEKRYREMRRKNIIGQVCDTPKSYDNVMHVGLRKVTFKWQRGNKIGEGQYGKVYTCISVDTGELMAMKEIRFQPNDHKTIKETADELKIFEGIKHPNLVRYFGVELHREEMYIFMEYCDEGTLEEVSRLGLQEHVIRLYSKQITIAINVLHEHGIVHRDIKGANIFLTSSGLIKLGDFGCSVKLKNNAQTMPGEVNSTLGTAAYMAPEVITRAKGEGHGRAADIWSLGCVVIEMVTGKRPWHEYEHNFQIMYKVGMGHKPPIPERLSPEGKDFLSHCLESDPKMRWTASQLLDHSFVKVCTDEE
MARK2, sequence (Q7KZI7 whole entry): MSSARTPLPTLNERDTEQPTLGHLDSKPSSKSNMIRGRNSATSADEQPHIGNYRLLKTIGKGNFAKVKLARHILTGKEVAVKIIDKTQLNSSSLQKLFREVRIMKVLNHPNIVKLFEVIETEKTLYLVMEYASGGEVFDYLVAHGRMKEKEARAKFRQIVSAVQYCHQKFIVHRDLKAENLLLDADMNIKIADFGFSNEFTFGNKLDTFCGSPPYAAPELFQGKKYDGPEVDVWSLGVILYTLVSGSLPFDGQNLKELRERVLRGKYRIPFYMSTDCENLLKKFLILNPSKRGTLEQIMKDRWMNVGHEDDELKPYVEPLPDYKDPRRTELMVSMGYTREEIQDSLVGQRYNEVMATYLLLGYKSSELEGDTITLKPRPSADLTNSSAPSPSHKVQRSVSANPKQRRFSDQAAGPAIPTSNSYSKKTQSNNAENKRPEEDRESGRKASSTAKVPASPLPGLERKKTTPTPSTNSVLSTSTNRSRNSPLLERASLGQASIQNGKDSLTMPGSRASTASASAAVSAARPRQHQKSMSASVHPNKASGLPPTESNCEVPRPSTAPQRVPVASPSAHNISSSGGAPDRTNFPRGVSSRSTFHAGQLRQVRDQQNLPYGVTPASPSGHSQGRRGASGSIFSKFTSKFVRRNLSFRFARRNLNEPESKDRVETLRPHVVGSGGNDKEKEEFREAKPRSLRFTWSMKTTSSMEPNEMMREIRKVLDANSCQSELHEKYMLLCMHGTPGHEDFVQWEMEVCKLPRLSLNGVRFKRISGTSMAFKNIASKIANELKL
MAP3K3, sequence (Q99759 whole entry): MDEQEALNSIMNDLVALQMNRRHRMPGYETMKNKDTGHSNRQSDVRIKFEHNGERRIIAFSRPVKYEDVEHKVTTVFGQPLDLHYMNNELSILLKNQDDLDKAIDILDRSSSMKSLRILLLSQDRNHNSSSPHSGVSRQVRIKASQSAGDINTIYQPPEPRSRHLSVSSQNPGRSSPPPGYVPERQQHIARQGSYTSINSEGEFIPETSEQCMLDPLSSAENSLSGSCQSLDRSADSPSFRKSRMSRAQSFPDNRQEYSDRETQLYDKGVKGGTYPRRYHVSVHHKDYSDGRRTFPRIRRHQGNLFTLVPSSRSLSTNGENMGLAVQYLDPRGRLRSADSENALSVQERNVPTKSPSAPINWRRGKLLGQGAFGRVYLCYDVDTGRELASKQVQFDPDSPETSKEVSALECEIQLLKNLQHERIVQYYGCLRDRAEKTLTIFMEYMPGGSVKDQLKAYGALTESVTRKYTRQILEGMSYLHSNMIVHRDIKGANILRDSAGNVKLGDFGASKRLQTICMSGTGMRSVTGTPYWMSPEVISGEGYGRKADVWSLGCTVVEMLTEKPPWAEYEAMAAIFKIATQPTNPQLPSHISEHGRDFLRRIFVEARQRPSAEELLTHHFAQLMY

- inhibition at 10 µM [1]: 97.1%
- inhibition at 10 µM [2]: 95.8%
- inhibition at 10 µM [3]: 97.4%
- inhibition at 10 µM [4]: 96.2%
Structure (SMILES): CS(=O)(=O)Nc1ccccc1Nc1nc(Nc2cccc(OCCN)c2)ncc1Cl [CZC31326, N-(2-(2-(3-(2-aminoethoxy)phenylamino)-5-chloropyrimidin-4-ylamino)phenyl)methanesulfonamide]
